Measurements as given in patent EP0367895A1, “Pyrimidinyl-substituted hydroxyacids, lactones and esters and pharmaceutical compositions containing them” (SANDOZ AG, priority 1988, dated 1990).

What was measured:
[1] = system: 3β-hydroxysterol synthesis; test: Test B: in vivo cholesterol biosynthesis inhibition test (as described in EP 114 027); conditions: dose calculated to produce a 50% inhibition of 3β-hydroxysterol synthesis, test doses between 0.01 mg/kg and 10 mg/kg; for ED50: read-out: ED₅₀
Description: Test B. In vivo cholesterol biosynthesis inhibition test: as described in EP 114 027:
ED₅₀ is the dose of the test substance calculated to produce a 50% inhibition of 3β-hydroxysterol synthesis. The studies are run to test doses of between 0.01 mg/kg and 10 mg/kg.

[2] = target: T1, 3-hydroxy-3-methylglutaryl coenzyme A (HMG-CoA) reductase (Rattus norvegicus, UniProt P51639); test: Test A: in vitro microsomal assay of HMG-CoA reductase inhibition (as described in EP 114 027); format: biochemical; conditions: concentration calculated to produce a 50% inhibition of HMG-CoA reductase activity; tests run between 0.05 µM and 1000 µM; read-out: IC₅₀
T1 construct: In vitro microsomal assay of; from tissue; host or cells: Microsomes; it is liver according to own knowledge of EP 114 027
T1 sequence (P51639 1-887): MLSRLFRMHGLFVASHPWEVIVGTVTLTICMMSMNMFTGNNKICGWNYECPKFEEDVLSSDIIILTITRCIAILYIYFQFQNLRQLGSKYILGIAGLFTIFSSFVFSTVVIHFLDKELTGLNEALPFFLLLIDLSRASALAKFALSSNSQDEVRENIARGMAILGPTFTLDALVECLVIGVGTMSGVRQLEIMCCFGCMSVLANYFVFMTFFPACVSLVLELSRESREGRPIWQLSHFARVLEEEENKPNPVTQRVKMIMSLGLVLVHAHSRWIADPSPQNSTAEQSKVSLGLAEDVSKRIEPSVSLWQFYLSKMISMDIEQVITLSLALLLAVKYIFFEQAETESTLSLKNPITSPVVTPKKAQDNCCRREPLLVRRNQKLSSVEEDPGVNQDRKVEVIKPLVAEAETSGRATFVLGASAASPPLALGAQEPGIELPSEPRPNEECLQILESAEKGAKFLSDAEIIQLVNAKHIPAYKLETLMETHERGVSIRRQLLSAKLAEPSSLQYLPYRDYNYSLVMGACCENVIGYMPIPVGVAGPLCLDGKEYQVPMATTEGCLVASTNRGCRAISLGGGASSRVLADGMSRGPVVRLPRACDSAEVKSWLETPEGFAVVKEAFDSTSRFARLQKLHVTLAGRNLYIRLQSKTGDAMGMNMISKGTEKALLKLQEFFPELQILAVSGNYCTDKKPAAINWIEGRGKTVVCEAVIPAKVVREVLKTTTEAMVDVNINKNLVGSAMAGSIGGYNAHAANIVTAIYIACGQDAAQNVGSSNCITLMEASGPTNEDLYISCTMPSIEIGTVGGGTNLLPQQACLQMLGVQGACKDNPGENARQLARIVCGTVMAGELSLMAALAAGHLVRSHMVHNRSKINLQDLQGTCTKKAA
Description: Test A. In vitro microsomal assay of 3-hydroxy-3-methylglutaryl coenzyme A (HMG-CoA) reductase inhibition: as described in EP 114 027:
IC₅₀ is the concentration of the test substance in the assay system calculated to produce a 50% inhibition of HMG-CoA reductase activity. The tests are run at concentrations of test substance between 0.05 µM and 1000 µM.

Compound | ED₅₀ [1] [mg/kg] | IC50 [2] [nM] | ED50 [1] [mg/kg]
Mevinolin [reference compound] | 0.41 | – | –
CC(C)c1nc(N(C)C)nc(-c2ccncc2)c1/C=C/[C@@H](O)C[C@@H](O)CC(=O)O [Example 11d] | – | 39 | 0.04
CC(C)c1nc(N(C)C)nc(-c2ccc(F)cc2)c1/C=C/[C@@H](O)C[C@@H](O)CC(=O)[O-].[Na+] [Example 1b), sodium (3R,5S)-[E]-7-[4-(4-fluoro-phenyl)-6-(1-methylethyl)-2-(dimethylamino)pyrimidin-5-yl]-3,5-dihydroxy-6-heptenoate] | – | 26 | 0.028
